This is an account of results in patent US10799501B2, “Combination of an inhibitor of PARP with an inhibitor of GSK-3 or DOT1L” (King's College London, priority 2015, dated 2020).

The subject of the test is PML-RARα transformed cells. The experiment in a line: In vitro drug treatment of primary murine hematopoietic cells transformed by PML-RARα (RTTA). The class given is cell-based, mouse. As to the method: Transduction using concentrated viral supernatant expressing the oncogene of interest was carried out by centrifugation (spinoculation) at 800 g at 32° C. for 2 hours in the presence of 5 μg ml^-1 polybrene (Sigma-Aldrich). Cells were subsequently plated in 1% methylcellulose medium ([…]; Stem Cell Technologies) containing 20 ngml^-1 SCF, 10 ngml^-1 IL-3, 10 ngml^-1 IL-6 and 10 ngml^-1 granulocyte macrophage colony-stimulating factor (GM-CSF) and appropriate selection antibiotic. Colonies were counted after 7 days of culture and replated every 6-7 days at 5×103-1.5×10^4 cell density. Re-plating was performed weekly to generate primary cell lines for further analysis. After the third or fourth round of plating, cells were cultured in R20/20 medium (RPMI 1640, 20% FCS, 20% WEHI-conditioned medium, 2 mM L-glutamine, 100 U/ml penicillin, and 100 μg/ml streptomycin) supplemented with 20 ngml^-1 stem cell factor (SCF), 10 ngml^-1 interleukin (IL)-3, and 10 ngml^-1 IL-6 to establish cell lines. All recombinant murine cytokines were from PeprotechEC. […] Colonies were scored 6-7 days after plating. For other in vitro studies, mouse leukemic cells and primary AML cell lines were subjected to continuously Olaparib (1 μM) or LiCl (8 mM) treatment in liquid culture for whole duration as indicated in the figures or figure legends. For human leukemic cell lines, experiments were performed as described above with 5 μM Olaparib. For each assay 1×10^5 cells were collected, washed in PBS and re-suspended in Annexin V binding solution (25 mM Hepes, 140 mM KCl, 2.5 mM CaCl2 pH 7.2). After centrifugation at 500 g for five minutes the cells were incubated with the Annexin V Binding solution containing 0.25 ug/ml mouse anti Annexin V-FITC antibody (Biolegend 640906) and 1 ug/ml propidium iodide in the dark for 30 minutes at 4° C. Samples were then washed in PBS analysed at the FACS LSRII (BD Biosciences Pharmingen) with FACS Diva. Cells were cytospun onto a glass slide at 400 g for 5 minutes and then fixed for 10 minutes with 2% formaldehyde/0.2% glutaraldehyde (Sigma Aldrich). Cells were then washed with PBS, and then incubated at 37° C. for at least 2 hours with a staining solution (30 mM Citric Acid/Phosphate buffer, 5 mM K4Fe(CN)6, 5 mM K3Fe(CN)6, 150 mM NaCl, 2 mM MgCl2, 1 mg/ml X-Gal) (All reagents from Sigma-Aldrich)62. Cells were counted in at least 5 fields for each slide, for a total of over 100 cells. The percentage of senescent cells was calculated by the percentage of the number of blue cell in the field. Cells were cytospun onto a glass slide at 400 g for 5 minutes and then fixed for 30 minutes in 4% PFA and permeabilized and blocked in 0.8% Tx-100, 10% FBS/1% BSA (Sigma-Aldrich) in PBS for 15 min at room temperature. Mouse anti mouse γH2AX ([…]) (Upstate clone JBW301#05-636) and rabbit anti mouse RAD51 (Santa Cruz Biotecnology […]# sc-8349) were diluted in TBS containing 10% FBS/1% BSA and incubated overnight at 4C. […] Slides were then washed five times at 10 min each with PBS. Slides were briefly washed in water and air-dried prior to mounting with Mowiol-DABCO and a coverslip. Cells were counted in at least 5 fields for each slide, for a total of over 100 cells per condition. 1×10^5 cells were cytospun for 5 min at 300 g onto glass slides. Slides were then stained with May-Grunwald solution (Sigma-Aldrich) for 3 min at room temperature. After washing in water, they were incubated for 20 min in Giemsa solution (Sigma-Aldrich) (1:20 in water). Slides were washed again in water before being mounted with Mowiol. Cells were counted in at least 5 fields for each slide, for a total of over 100 cells per condition. NBT reduction assay were performed to determine myeloid differentiation. 0.1% of NBT (final concentration) was added to the liquid culture or semi-solid methocult and incubated at 37° C. CO2 incubator for 3 hrs and 12 hrs, respectively. […]

Consider `O=C(c1cc(Cc2n[nH]c(=O)c3ccccc23)ccc1F)N1CCN(C(=O)C2CC2)CC1` [Olaparib, 4-[(3-[(4-cyclopropylcarbonyl)piperazin-4-yl]carbonyl)-4-fluorophenyl]methyl(2H)-phthalazin-1-one], for which the “suppression of colony forming ability” value (1 uM Olaparib, methylcellulose 7 days, p<0.001) is on record as “about 90%”. Further, under “PARPi 24 hrs and 48 hrs”, the “apoptosis (Annexin V/PI)” value is on record as “induced apoptosis” and the “senescence (β-galactosidase staining)” value was “underwent significant senescence”. Moreover, for the setting “PARPi treatment for 6 hours”, the “Rad51 recruitment to DNA damage sites (RAD51 foci)” value is recorded as “no significant Rad51 recruitment”. In addition, the “percentage of differentiation (morphology and NBT reduction)” value (time course PARPi treatment) is reported as “significantly increased the percentage of differentiation”. Besides, where the note is “upon PARPi treatment”, the “cells with γH2AX and Rad51 foci ratio greater than 2” value is given as “around 80%”.
